Source: US20250041389A1, “ENHANCING ABSORPTION OF DIETARY COMPOUNDS TO PROMOTE HEALTH” (ARIZONA BOARD OF REGENTS ON BEHALF OF THE UNIVERSITY OF …, priority 2023, published 2025)

Legend:
ovariectomized rats = assay: Bone loss in ovariectomized rats (FDA-approved model for testing osteoporosis treatments); type: in vivo
[1] = tested on: breast cancer bone metastasis models; assay: Osteolysis in breast cancer bone metastasis models; type: in vivo
[2] = tested on: rheumatoid arthritis model; assay: Joint inflammation in a rheumatoid arthritis model; type: in vivo
[3] = tested on: TGF-β signaling in human breast cancer cells; assay: Inhibition of TGF-β signaling in human breast cancer cells; type: cell-based

Row | Compound | bone loss (ovariectomized rats) | bone-resorbing osteoclasts (ovariectomized rats) | osteolysis [1] | joint inflammation [2] | TGF-β signaling [3]
1 | COc1cc(/C=C/C(=O)CC(=O)/C=C/c2ccc(O)c(OC)c2)ccc1O [curcumin] | prevent | decreasing | mitigate | prevent | inhibit
2 | gingerols |  |  |  | prevent | 
3 | shogaols |  |  |  | prevent | 
